# In article PMC4447944 (The Journal of Biological Chemistry, 2015):
# Assays:
# [1] = target: T1, hGRK4 (Homo sapiens, UniProt P32298); assay: KINOMEscan; format: binding
# T1 construct: purchased DiscoverX
# [2] = target: T2, hRPS6KA5(Kin.Dom.1-N-term) (Homo sapiens, UniProt O75582); assay: KINOMEscan; format: binding
# T2 construct: hRPS6KA5(Kin.Dom.1-N-term); purchased DiscoverX (KINOMEscan platform)
# [3] = target: T3, hIRAK1 (Homo sapiens, UniProt P51617); assay: KINOMEscan; format: binding
# T3 construct: purchased DiscoverX (KINOMEscan panel)
# [4] = target: T4, hMARK1 (Homo sapiens, UniProt Q9P0L2); assay: KINOMEscan; format: binding
# T4 construct: purchased DiscoverX
# [5] = target: T5, hEGFR(L861Q) (Homo sapiens, UniProt P00533, L861Q); assay: KINOMEscan; format: binding
# T5 construct: purchased DiscoverX
# [6] = target: T6, hMAP4K3 (Homo sapiens, UniProt Q8IVH8); assay: KINOMEscan; format: binding
# T6 construct: purchased DiscoverX (KINOMEscan platform)
# [7] = target: T7, hINSR (Homo sapiens, UniProt P06213); assay: KINOMEscan; format: binding
# T7 construct: purchased DiscoverX (KINOMEscan panel)
# [8] = target: T8, hEIF2AK1 (Homo sapiens, UniProt Q9BQI3); assay: KINOMEscan; format: binding
# T8 construct: purchased DiscoverX
# [9] = target: T9, hERβ (Homo sapiens, UniProt Q92731); assay: Nuclear hormone receptor assay (Eurofins-CEREP); settings: read-out: Relative IC50
# T9 construct: Eurofins-CEREP
# [10] = target: T10, hACVR1 (Homo sapiens, UniProt Q04771); assay: KINOMEscan; format: binding
# T10 construct: purchased DiscoverX (KINOMEscan platform)
# [11] = target: T11, hAKT1 (Homo sapiens, UniProt P31749); assay: KINOMEscan; format: binding
# T11 construct: purchased DiscoverX
# [12] = target: T12, hPRP4 (Homo sapiens, UniProt Q13523); assay: KINOMEscan; format: binding
# T12 construct: purchased DiscoverX
# [13] = target: T13, hFGFR3 (Homo sapiens, UniProt P22607); assay: KINOMEscan; format: binding
# T13 construct: purchased DiscoverX
# [14] = target: T14, hEPHB6 (Homo sapiens, UniProt O15197); assay: KINOMEscan; format: binding
# T14 construct: purchased DiscoverX
# [15] = target: T15, hBMX (Homo sapiens, UniProt P51813); assay: KINOMEscan; format: binding
# T15 construct: purchased DiscoverX
# [16] = target: T16, hMAPKAPK5 (Homo sapiens, UniProt Q8IW41); assay: KINOMEscan; format: binding
# T16 construct: purchased DiscoverX
# [17] = target: T17, hJAK1(JH1Dom.-catalytic) (Homo sapiens, UniProt P23458); assay: KINOMEscan; format: binding
# T17 construct: hJAK1(JH1Dom.-catalytic); purchased DiscoverX (KINOMEscan panel)
# T17 sequence (P23458 875-1153 limits assumed): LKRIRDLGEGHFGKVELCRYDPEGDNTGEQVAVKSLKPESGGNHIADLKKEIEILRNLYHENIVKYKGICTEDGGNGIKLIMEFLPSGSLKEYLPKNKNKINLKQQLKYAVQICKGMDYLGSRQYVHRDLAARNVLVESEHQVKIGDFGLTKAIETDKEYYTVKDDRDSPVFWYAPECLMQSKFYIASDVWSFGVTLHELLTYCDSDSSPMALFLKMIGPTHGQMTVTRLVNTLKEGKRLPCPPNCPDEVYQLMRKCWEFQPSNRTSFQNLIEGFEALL
# [18] = target: T18, hPPARγ (Homo sapiens, UniProt P37231); assay: Nuclear hormone receptor assay (Eurofins-CEREP); settings: read-out: Relative IC50
# T18 construct: Eurofins-CEREP
# [19] = target: T19, hMARK4 (Homo sapiens, UniProt Q96L34); assay: KINOMEscan; format: binding
# T19 construct: purchased DiscoverX
# T19 sequence (Q96L34 whole entry): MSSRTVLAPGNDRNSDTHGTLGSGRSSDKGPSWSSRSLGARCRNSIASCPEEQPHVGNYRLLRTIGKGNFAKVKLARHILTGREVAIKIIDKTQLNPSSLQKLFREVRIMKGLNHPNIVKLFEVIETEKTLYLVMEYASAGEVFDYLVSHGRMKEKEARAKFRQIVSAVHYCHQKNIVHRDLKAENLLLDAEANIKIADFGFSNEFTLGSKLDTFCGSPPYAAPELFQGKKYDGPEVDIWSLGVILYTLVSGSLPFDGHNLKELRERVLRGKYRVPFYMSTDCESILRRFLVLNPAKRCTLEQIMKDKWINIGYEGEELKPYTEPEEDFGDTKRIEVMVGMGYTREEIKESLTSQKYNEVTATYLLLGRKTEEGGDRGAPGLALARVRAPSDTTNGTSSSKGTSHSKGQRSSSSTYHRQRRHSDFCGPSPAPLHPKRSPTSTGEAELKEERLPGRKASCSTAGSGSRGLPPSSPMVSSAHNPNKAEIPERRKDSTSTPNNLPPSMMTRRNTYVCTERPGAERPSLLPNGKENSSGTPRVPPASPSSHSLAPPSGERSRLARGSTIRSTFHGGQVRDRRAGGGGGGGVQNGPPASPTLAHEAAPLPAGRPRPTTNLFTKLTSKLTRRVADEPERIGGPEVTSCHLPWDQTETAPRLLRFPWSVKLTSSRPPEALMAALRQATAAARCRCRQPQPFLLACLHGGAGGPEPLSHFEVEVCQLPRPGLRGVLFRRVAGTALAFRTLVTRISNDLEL
# [20] = target: T20, hIGF1R (Homo sapiens, UniProt P08069); assay: KINOMEscan; format: binding
# T20 construct: purchased DiscoverX (KINOMEscan panel)
# [21] = target: T21, hADORA3 (Homo sapiens, UniProt P0DMS8); assay: cAMP Potentiation (Eurofins-CEREP); settings: @ 10 μM
# T21 sequence (P0DMS8 1-318): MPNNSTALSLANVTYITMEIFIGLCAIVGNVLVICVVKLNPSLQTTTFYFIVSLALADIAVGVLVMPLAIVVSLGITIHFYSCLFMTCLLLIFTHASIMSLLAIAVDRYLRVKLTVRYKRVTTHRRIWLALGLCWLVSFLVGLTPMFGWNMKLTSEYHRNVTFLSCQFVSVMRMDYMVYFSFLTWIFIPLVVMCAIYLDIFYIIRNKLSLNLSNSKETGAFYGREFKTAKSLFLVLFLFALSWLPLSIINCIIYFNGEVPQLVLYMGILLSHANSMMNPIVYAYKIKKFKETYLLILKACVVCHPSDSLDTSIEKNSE
# [22] = target: T22, hLZK (Homo sapiens, UniProt O43283); assay: KINOMEscan; format: binding
# T22 construct: purchased DiscoverX (KINOMEscan platform)
# [23] = target: T23, hMKNK2 (Homo sapiens, UniProt Q9HBH9); assay: KINOMEscan; format: binding
# T23 construct: purchased DiscoverX
# [24] = target: T24, hCAMK2D (Homo sapiens, UniProt Q13557); assay: KINOMEscan; format: binding
# T24 construct: purchased DiscoverX
# [25] = target: T25, hLRRK2 (Homo sapiens, UniProt Q5S007); assay: KINOMEscan; format: binding
# T25 construct: purchased DiscoverX (KINOMEscan platform)
# T25 sequence (Q5S007 whole entry): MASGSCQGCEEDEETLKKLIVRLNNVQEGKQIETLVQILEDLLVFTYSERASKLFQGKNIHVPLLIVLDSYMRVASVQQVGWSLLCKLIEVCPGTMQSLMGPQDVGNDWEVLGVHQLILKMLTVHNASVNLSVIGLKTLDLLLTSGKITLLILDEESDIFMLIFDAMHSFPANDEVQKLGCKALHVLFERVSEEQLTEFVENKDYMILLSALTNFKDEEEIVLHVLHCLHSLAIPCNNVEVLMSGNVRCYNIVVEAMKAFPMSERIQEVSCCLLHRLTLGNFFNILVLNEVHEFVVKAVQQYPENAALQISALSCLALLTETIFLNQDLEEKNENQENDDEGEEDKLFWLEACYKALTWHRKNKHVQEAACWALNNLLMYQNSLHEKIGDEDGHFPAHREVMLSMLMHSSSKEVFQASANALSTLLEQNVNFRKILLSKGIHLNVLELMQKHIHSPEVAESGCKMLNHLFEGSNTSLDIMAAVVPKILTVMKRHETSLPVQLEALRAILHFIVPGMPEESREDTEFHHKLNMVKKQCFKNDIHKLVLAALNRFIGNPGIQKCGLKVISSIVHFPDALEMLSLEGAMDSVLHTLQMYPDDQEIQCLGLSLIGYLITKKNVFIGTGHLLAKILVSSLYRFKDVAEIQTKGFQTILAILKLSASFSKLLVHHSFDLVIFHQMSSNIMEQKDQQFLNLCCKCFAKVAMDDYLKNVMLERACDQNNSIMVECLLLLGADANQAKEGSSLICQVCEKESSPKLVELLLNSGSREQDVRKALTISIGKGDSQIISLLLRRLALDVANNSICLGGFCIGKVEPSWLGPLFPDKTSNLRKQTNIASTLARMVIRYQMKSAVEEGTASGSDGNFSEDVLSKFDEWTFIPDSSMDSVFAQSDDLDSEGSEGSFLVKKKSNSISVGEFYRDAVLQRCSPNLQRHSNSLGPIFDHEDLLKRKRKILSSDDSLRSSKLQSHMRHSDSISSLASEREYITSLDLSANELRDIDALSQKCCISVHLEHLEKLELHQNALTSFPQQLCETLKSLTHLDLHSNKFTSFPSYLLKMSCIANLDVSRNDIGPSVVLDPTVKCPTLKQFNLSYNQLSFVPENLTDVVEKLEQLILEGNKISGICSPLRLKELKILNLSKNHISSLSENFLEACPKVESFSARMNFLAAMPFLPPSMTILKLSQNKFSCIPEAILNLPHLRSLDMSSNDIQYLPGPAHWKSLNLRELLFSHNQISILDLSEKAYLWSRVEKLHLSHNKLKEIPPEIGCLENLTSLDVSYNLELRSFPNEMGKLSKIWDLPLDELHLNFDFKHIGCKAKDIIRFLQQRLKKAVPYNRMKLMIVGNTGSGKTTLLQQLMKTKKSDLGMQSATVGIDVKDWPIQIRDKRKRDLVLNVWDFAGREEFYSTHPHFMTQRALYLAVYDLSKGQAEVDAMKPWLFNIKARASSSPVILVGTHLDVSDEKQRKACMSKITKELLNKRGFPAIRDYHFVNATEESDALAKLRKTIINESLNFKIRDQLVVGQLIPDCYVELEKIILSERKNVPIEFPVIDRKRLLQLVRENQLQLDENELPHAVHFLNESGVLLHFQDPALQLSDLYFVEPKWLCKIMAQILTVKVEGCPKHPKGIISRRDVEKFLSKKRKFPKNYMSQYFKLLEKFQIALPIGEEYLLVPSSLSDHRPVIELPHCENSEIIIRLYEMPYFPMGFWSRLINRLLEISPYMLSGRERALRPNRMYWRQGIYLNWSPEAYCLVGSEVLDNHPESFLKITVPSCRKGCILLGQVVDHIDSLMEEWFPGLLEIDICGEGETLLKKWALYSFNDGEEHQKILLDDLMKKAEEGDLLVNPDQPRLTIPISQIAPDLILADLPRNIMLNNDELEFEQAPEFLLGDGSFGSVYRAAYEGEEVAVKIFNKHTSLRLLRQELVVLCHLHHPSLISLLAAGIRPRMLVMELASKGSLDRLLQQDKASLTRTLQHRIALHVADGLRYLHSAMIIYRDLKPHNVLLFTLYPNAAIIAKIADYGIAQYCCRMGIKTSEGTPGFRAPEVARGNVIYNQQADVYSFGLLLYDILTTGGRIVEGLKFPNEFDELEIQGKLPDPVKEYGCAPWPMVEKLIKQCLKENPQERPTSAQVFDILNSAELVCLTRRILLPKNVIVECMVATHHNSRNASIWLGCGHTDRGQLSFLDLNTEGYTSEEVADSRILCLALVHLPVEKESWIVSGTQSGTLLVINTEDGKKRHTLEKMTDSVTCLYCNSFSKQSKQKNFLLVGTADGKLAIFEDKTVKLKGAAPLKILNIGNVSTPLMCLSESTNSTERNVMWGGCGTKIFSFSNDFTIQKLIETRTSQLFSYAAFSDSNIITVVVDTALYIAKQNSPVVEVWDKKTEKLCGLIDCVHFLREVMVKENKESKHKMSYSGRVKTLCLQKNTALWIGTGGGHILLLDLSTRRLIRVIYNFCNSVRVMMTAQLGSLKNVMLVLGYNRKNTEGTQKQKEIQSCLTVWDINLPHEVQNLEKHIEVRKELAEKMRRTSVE
# [26] = target: T26, hMKK7 (Homo sapiens, UniProt O14733); assay: KINOMEscan; format: binding
# T26 construct: purchased DiscoverX
# T26 sequence (O14733 whole entry): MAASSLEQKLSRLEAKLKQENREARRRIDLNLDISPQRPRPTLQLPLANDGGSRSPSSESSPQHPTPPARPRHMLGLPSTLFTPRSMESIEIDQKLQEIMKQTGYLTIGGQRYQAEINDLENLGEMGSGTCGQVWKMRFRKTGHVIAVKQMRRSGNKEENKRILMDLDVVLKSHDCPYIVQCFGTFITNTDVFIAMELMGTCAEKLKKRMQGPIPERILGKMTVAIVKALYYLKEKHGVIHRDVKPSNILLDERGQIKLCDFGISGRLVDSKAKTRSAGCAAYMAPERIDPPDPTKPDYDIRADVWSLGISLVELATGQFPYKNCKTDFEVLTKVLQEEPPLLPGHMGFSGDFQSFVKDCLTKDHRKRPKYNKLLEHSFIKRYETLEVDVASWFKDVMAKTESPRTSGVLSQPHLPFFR
# [27] = target: T27, hBMPR1B (Homo sapiens, UniProt O00238); assay: KINOMEscan; format: binding
# T27 construct: purchased DiscoverX
# [28] = target: T28, hABL1(pY253F) (Homo sapiens, UniProt P00519, Y253F); assay: KINOMEscan; format: binding
# T28 construct: purchased DiscoverX (KINOMEscan platform)
# [29] = target: T29, hGRK7 (Homo sapiens, UniProt Q8WTQ7); assay: KINOMEscan; format: binding
# T29 construct: purchased DiscoverX
# [30] = target: T30, hCAMKK1 (Homo sapiens, UniProt Q8N5S9); assay: KINOMEscan; format: binding
# T30 construct: purchased DiscoverX
# [31] = target: T31, hMEK5 (Homo sapiens, UniProt Q13163); assay: KINOMEscan; format: binding
# T31 construct: purchased DiscoverX
# [32] = target: T32, hRIOK3 (Homo sapiens, UniProt O14730); assay: KINOMEscan; format: binding
# T32 construct: purchased DiscoverX (KINOMEscan platform)
# [33] = target: T33, hLXRβ (Homo sapiens, UniProt P55055); assay: Nuclear hormone receptor assay (Eurofins-CEREP); settings: read-out: Relative IC50
# T33 construct: Eurofins-CEREP
# T33 sequence (P55055 whole entry): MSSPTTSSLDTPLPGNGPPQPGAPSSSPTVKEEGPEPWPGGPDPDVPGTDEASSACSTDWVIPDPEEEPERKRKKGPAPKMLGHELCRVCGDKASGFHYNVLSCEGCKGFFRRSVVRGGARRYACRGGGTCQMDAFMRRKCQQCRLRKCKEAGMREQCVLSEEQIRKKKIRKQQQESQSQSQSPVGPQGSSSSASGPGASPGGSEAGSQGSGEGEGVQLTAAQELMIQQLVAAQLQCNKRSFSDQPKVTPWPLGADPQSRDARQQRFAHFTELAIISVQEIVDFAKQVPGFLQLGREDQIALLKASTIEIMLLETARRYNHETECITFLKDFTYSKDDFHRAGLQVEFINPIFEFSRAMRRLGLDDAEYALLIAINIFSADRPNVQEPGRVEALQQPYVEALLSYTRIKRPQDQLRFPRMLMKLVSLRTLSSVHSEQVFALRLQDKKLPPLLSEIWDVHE
# [34] = target: T34, hTYRO3 (Homo sapiens, UniProt Q06418); assay: KINOMEscan; format: binding
# T34 construct: purchased DiscoverX
# [35] = target: T35, hRSK4(Kin.Dom.2-C-term) (Homo sapiens, UniProt Q9UK32); assay: KINOMEscan; format: binding
# T35 construct: hRSK4(Kin.Dom.2-C-term); purchased DiscoverX (KINOMEscan platform)
# [36] = target: T36, hEPHA7 (Homo sapiens, UniProt Q15375); assay: KINOMEscan; format: binding
# T36 construct: purchased DiscoverX
# [37] = target: T37, hDAPK1 (Homo sapiens, UniProt P53355); assay: KINOMEscan; format: binding
# T37 construct: purchased DiscoverX (KINOMEscan platform)
# T1 sequence (P32298 whole entry): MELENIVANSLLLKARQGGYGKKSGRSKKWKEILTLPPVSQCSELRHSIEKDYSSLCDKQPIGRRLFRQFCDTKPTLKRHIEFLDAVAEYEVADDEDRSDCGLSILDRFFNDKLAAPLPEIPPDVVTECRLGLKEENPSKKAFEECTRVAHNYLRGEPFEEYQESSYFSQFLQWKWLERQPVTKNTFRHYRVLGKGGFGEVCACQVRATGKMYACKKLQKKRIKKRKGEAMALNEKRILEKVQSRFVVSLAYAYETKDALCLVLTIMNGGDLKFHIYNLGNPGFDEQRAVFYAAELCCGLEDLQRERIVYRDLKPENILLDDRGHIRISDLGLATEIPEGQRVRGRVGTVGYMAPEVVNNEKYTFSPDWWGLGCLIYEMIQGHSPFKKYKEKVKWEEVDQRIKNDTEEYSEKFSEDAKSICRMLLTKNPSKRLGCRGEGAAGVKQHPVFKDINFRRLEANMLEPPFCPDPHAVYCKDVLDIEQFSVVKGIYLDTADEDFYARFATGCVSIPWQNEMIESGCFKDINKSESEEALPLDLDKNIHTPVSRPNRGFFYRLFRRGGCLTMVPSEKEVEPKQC
smiles,measurement,setting,value
"Cc1cn(CCN2CCN(c3ccccc3-c3cc(C#N)cc(C(=O)NCCCN4CCCC4)c3)CC2)c2ccccc12 [LLY-507, 3-cyano-5-{2-[4-[2-(3-methylindol-1-yl)ethyl]piperazin-1-yl]-phenyl}-N-[(3-pyrrolidin-1-yl)propyl]benzamide]",IC50,[1],> 20 µM
same,IC50,[2],> 20 µM
same,IC50,[3],> 20 µM
same,IC50,[4],> 20 µM
same,IC50,[5],> 20 µM
same,IC50,[6],> 20 µM
same,IC50,[7],> 20 µM
same,IC50,[8],> 20 µM
same,IC50,[9],> 10 µM
same,IC50,[10],> 20 µM
same,IC50,[11],> 20 µM
same,IC50,[12],> 20 µM
same,IC50,[13],> 20 µM
same,IC50,[14],> 20 µM
same,IC50,[15],> 20 µM
same,IC50,[16],> 20 µM
same,IC50,[17],> 20 µM
same,IC50,[18],> 10 µM
same,IC50,[19],> 20 µM
same,IC50,[20],> 20 µM
same,"% Effect, Potentiation",[21],-7.3%
same,IC50,[22],> 20 µM
same,IC50,[23],> 20 µM
same,IC50,[24],> 20 µM
same,IC50,[25],> 20 µM
same,IC50,[26],> 20 µM
same,IC50,[27],> 20 µM
same,IC50,[28],> 20 µM
same,IC50,[29],> 20 µM
same,IC50,[30],> 20 µM
same,IC50,[31],> 20 µM
same,IC50,[32],> 20 µM
same,IC50,[33],> 10 µM
same,IC50,[34],> 20 µM
same,IC50,[35],> 20 µM
same,IC50,[36],> 20 µM
same,IC50,[37],> 20 µM
